Tests used:
[1] = molar heat capacity at constant pressure; conditions: 101.33 kPa, Liquid, Small sample (50 mg) DSC
[2] = Liquid; for thermal diffusivity: 101.33 kPa, Laser flash apparatus

COC(=O)CCC(C)=O [methyl levulinate]
Conditions | Critical pressure [kPa] | Critical temperature [K] | molar heat capacity at constant pressure [J/K/mol] | thermal diffusivity [m2/s]
[1], 302.68 K | – | – | 258.85 | –
[1], 303.18 K | – | – | 259.11 | –
[1], 303.68 K | – | – | 258.98 | –
[1], 304.18 K | – | – | 259.24 | –
[1], 304.68 K | – | – | 258.98 | –
[1], 305.18 K | – | – | 258.72 | –
[1], 305.68 K | – | – | 259.11 | –
[1], 306.18 K | – | – | 258.85 | –
[1], 306.68 K | – | – | 258.98 | –
[1], 307.18 K | – | – | 259.5 | –
[1], 307.68 K | – | – | 259.63 | –
[1], 308.18 K | – | – | 259.89 | –
[1], 308.68 K | – | – | 260.15 | –
[1], 309.18 K | – | – | 259.89 | –
[1], 309.68 K | – | – | 259.63 | –
[1], 310.18 K | – | – | 259.76 | –
[1], 310.68 K | – | – | 259.37 | –
[1], 311.18 K | – | – | 259.37 | –
[1], 311.68 K | – | – | 259.5 | –
[1], 312.18 K | – | – | 259.76 | –
[1], 312.68 K | – | – | 259.89 | –
[1], 313.18 K | – | – | 259.76 | –
[1], 313.68 K | – | – | 260.15 | –
[1], 314.18 K | – | – | 260.02 | –
[1], 314.68 K | – | – | 260.54 | –
[1], 315.18 K | – | – | 260.15 | –
[1], 315.68 K | – | – | 260.02 | –
[1], 316.18 K | – | – | 259.89 | –
[1], 316.68 K | – | – | 260.8 | –
[1], 317.18 K | – | – | 260.93 | –
[1], 317.68 K | – | – | 260.8 | –
[1], 318.18 K | – | – | 261.06 | –
[1], 318.68 K | – | – | 261.06 | –
[1], 319.18 K | – | – | 261.19 | –
[1], 319.68 K | – | – | 261.06 | –
[1], 320.18 K | – | – | 260.93 | –
[1], 320.68 K | – | – | 261.06 | –
[1], 321.18 K | – | – | 261.19 | –
[1], 321.68 K | – | – | 261.32 | –
[1], 322.18 K | – | – | 261.06 | –
[1], 322.68 K | – | – | 260.8 | –
[1], 323.18 K | – | – | 261.32 | –
[1], 323.68 K | – | – | 261.32 | –
[1], 324.18 K | – | – | 261.45 | –
[1], 324.68 K | – | – | 261.72 | –
[1], 325.18 K | – | – | 261.59 | –
[1], 325.68 K | – | – | 261.85 | –
[1], 326.18 K | – | – | 261.98 | –
[1], 326.68 K | – | – | 262.11 | –
[1], 327.18 K | – | – | 262.11 | –
[1], 327.68 K | – | – | 262.24 | –
[1], 328.18 K | – | – | 262.37 | –
[1], 328.68 K | – | – | 262.63 | –
[1], 329.18 K | – | – | 262.76 | –
[1], 329.68 K | – | – | 262.63 | –
[1], 330.18 K | – | – | 262.63 | –
[1], 330.68 K | – | – | 263.02 | –
[1], 331.18 K | – | – | 263.15 | –
[1], 331.68 K | – | – | 263.15 | –
[1], 332.18 K | – | – | 263.93 | –
[1], 332.68 K | – | – | 263.8 | –
[1], 333.18 K | – | – | 264.06 | –
[1], 333.68 K | – | – | 263.93 | –
[1], 334.18 K | – | – | 264.06 | –
[1], 334.68 K | – | – | 264.45 | –
[1], 335.18 K | – | – | 264.45 | –
[1], 335.68 K | – | – | 264.19 | –
[1], 336.18 K | – | – | 264.19 | –
[1], 336.68 K | – | – | 264.58 | –
[1], 337.18 K | – | – | 264.45 | –
[1], 337.68 K | – | – | 264.32 | –
[1], 338.18 K | – | – | 264.45 | –
[1], 338.68 K | – | – | 264.45 | –
[1], 339.18 K | – | – | 265.1 | –
[1], 339.68 K | – | – | 265.36 | –
[1], 340.18 K | – | – | 264.97 | –
[1], 340.68 K | – | – | 264.84 | –
[1], 341.18 K | – | – | 264.97 | –
[1], 341.68 K | – | – | 265.49 | –
[1], 342.18 K | – | – | 265.49 | –
[1], 342.68 K | – | – | 265.62 | –
[1], 343.18 K | – | – | 265.75 | –
[1], 343.68 K | – | – | 266.01 | –
[1], 344.18 K | – | – | 266.4 | –
[1], 344.68 K | – | – | 266.27 | –
[1], 345.18 K | – | – | 266.27 | –
[1], 345.68 K | – | – | 266.4 | –
[1], 346.18 K | – | – | 266.79 | –
[1], 346.68 K | – | – | 266.4 | –
[1], 347.18 K | – | – | 266.79 | –
[1], 347.68 K | – | – | 266.66 | –
[1], 348.18 K | – | – | 266.92 | –
[1], 348.68 K | – | – | 267.31 | –
[1], 349.18 K | – | – | 266.92 | –
[1], 349.68 K | – | – | 267.18 | –
[1], 350.18 K | – | – | 267.7 | –
[1], 350.68 K | – | – | 267.7 | –
[1], 351.18 K | – | – | 268.09 | –
[1], 351.68 K | – | – | 268.09 | –
[1], 352.18 K | – | – | 267.96 | –
[1], 352.68 K | – | – | 268.48 | –
[1], 353.18 K | – | – | 268.61 | –
[1], 353.68 K | – | – | 268.61 | –
[1], 354.18 K | – | – | 268.48 | –
[1], 354.68 K | – | – | 268.48 | –
[1], 355.18 K | – | – | 268.87 | –
[1], 355.68 K | – | – | 268.87 | –
[1], 356.18 K | – | – | 268.87 | –
[1], 356.68 K | – | – | 269.13 | –
[1], 357.18 K | – | – | 269.39 | –
[1], 357.68 K | – | – | 269.78 | –
[1], 358.18 K | – | – | 269.91 | –
[1], 358.68 K | – | – | 269.65 | –
[1], 359.18 K | – | – | 270.17 | –
[1], 359.68 K | – | – | 270.3 | –
[1], 360.18 K | – | – | 270.56 | –
[1], 360.68 K | – | – | 270.83 | –
[1], 361.18 K | – | – | 270.96 | –
[1], 361.68 K | – | – | 270.56 | –
[1], 362.18 K | – | – | 270.56 | –
[1], 362.68 K | – | – | 270.56 | –
[1], 363.18 K | – | – | 271.09 | –
[1], 363.68 K | – | – | 270.96 | –
[1], 364.18 K | – | – | 271.22 | –
[1], 364.68 K | – | – | 271.48 | –
[1], 365.18 K | – | – | 271.74 | –
[1], 365.68 K | – | – | 271.74 | –
[1], 366.18 K | – | – | 271.87 | –
[1], 366.68 K | – | – | 271.87 | –
[1], 367.18 K | – | – | 271.87 | –
[1], 367.68 K | – | – | 272.39 | –
[1], 368.18 K | – | – | 272.52 | –
[1], 368.68 K | – | – | 272.65 | –
[1], 369.18 K | – | – | 273.04 | –
[1], 369.68 K | – | – | 273.04 | –
[1], 370.18 K | – | – | 272.78 | –
[1], 370.68 K | – | – | 272.91 | –
[1], 371.18 K | – | – | 273.3 | –
[1], 371.68 K | – | – | 273.56 | –
[1], 372.18 K | – | – | 273.56 | –
[1], 372.68 K | – | – | 273.56 | –
[1], 373.18 K | – | – | 273.82 | –
[1], 373.68 K | – | – | 273.69 | –
[2], 303.15 K | – | – | – | 8e-08
[2], 313.15 K | – | – | – | 7.9e-08
[2], 323.15 K | – | – | – | 7.85e-08
[2], 333.15 K | – | – | – | 7.7e-08
[2], 343.15 K | – | – | – | 7.6e-08
[2], 353.15 K | – | – | – | 7.5e-08
[2], 363.15 K | – | – | – | 7.35e-08
[2], 373.15 K | – | – | – | 7.25e-08
[2], Resistive pulse heating | 3270 | 668 | – | –

From the NIST ThermoML archive (doi:10.1016/j.jct.2019.03.040)
